Patent US20040024293A1, “Methods and systems for analyzing complex biological systems” (priority 2001, published 2004)

Experiments:
Arabidopsis thaliana = assay: Phenotypic profiling of Arabidopsis sprayed with unknown and commercial herbicides (MOA1); format: in vivo
[1] = test system: Saccharomyces cerevisiae wild type strain BY4743; assay: Metabolite analysis (GC-MS, LC-MS) of yeast cells treated with antifungal drugs (AF1); format: cell-based; conditions: for Fold Change of NacetylDglucosamine: metabolite NacetylDglucosamine; for Fold Change of phosphoenolpyruvate: metabolite phosphoenolpyruvate; for Fold Change of thymine: metabolite thymine; for Fold Change of urocanic acid: metabolite urocanic acid; for Fold Change of zeatin: metabolite zeatin
[2] = test system: Saccharomyces cerevisiae wild type strain BY4743; assay: Combined gene expression and metabolite data mapped to KEGG reactions and pathways (AF1); format: cell-based; conditions: yeast
From the text: In AF1, two different technologies were utilized: gene expression analysis (for examination of mRNA expression) and metabolite analysis. […] As noted previously, existing metabolic databases may be helpful in practicing the methods and systems of the present invention, but many databases include limitations that make their use in data analysis and pathway mapping less than straightforward. […] This caveat to KEGG makes it difficult to pinpoint the correct pathway when attempting to link a gene to a specific pathway. […] The pathway score indicates how meaningful the mapping is, or how likely it is to be correctly indicative of the pathway involved in the perturbation under examination. The method provides a pathway score based on perturbation levels of genes. and/or compounds and the information content of each gene and/or compound in the pathway, i.e., a pathway score indicates the extent to which other pathways are mapped to a gene/compound. For example, imagine that two genes are perturbed in a particular experiment. One gene maps to only one pathway, giving a high degree of probability that the perturbed pathway is the one identified in the mapping. The second gene maps to three pathways. In the later example, there is only one-third the probability that the pathway identified in the mapping is the one perturbed. The present invention provides a method for calculating the pathway scores, so that more weight is given to a score of a gene or compound that maps to only one pathway than to a score of a gene or compound that maps to multiple pathways. […] Where n=the total number of genes in the pathway; ipath—count=the number of pathways containing a gene; and j=the number of genes in the pathway that are perturbed. Another factor to be considered when weighting a pathway score is the degree of perturbation. Degree of perturbation can be calculated, for example, based on a number of standard deviations from a norm, and included in an equation such as the one shown above, so that not only the number of pathways is taken into account, but also accounts for the amount of gene transcript or compound present as compared to a control. Compounds were also linked to pathways using the KEGG database. KEGG links 676 compounds measured in AF1 to a total of 92 pathways. Of the 676 compounds under consideration, 77 were detected in the AF1 samples. […] The multiple mapping feature of KEGG makes it difficult to pinpoint the correct pathway when trying to link a compound to a specific pathway. […] A pathway score calculation is applied to the compounds to account for both information content (number of pathways a compound maps to) and perturbation level. […]

[3] = test system: Saccharomyces cerevisiae wild type strain BY4743; assay: Gene expression analysis of yeast cells treated with antifungal drugs (AF1); format: cell-based; conditions: p < 0.05; KEGG pathway mapping of gene expression data
Procedure: Saccharomyces cerevisiae wild type strain BY4743 was purchased from American Type Culture Center (ATCC, Manassas, Va.). The yeast strain was grown in YPD or SD media. […] The cultures started from fresh single colonies were grown in 1.0 ml YPD overnight at 30° C. […] The OD600 was adjusted to 1.0 with YPD media, then 2.0 ml of each was inoculated into three 250 ml flasks, each containing 50 ml of SD media. […] The cells were kept growing for another two hours, then collected by centrifugation at 4000 rpm for 5 minutes at 4° C. Pellets were washed once with ice-cold water, then were lyophilized overnight at 4° C. […] RNA quality was determined using the Bioanalyzer 2100 and the RNA 6000 assay (Agilent Technologies, Palo Alto, Calif.) according to manufacturer's instructions. RNA concentrations were determined spectrophotometrically by measuring the absorption at 260 nm in an Ultrospec 2000 (Pharmacia Biotech, Piscataway, N.J.). […] Labeled cRNAs were evaluated using the RNA 6000 assay on the Agilent Bioanalyzer 2100. Labeled cRNA concentrations were determined spectrophotometrically by measuring the absorption at 260 nm in an Ultrospec 2000 (Pharmacia Biotech, Piscataway, N.J.). […] Each feature was determined from an array's associated pattern file and a detection algorithm. […] Data was evaluated after combining results from fluor reversal replicate hybridizations. […]

## Nc1nc[nH]n1 [Amitrole]
Arabidopsis thaliana
  herbicidal phenotype in words: chlorosis and not true bleaching

## CCSC(=O)N(CC(C)C)CC(C)C [Butylate]
Arabidopsis thaliana
  herbicidal phenotype in words: neither showed a strong herbicidal phenotype

## CC[C@@H]([C@H](C)O)n1ncn(-c2ccc(N3CCN(c4ccc(OC[C@@H]5CO[C@@](Cn6cncn6)(c6ccc(F)cc6F)C5)cc4)CC3)cc2)c1=O [Posaconazole]
[1]; GC
  Fold Change: aspartic acid: −0.071
  Fold Change: campesterol: 0
  Fold Change: desmosterol: 0
  Fold Change: iso citric acid: 0.4
[1]; platform nLC, p-Value 1
  Fold Change of NacetylDglucosamine: 0
  Fold Change of phosphoenolpyruvate: 0
  Fold Change of thymine: 0
  Fold Change of urocanic acid: 0
  Fold Change of zeatin: 0
[1]; platform pLC, p-Value 1
  Fold Change of NacetylDglucosamine: 0
  Fold Change of phosphoenolpyruvate: 0
  Fold Change of thymine: 0
  Fold Change of urocanic acid: 0
  Fold Change of zeatin: 0
[1]; metabolite NacetylLglutamate, platform pLC, p-Value 1
  Fold Change of NacetylLglutamate: 0
[1]; metabolite NacetylLornithine, platform nLC, p-Value 1
  Fold Change of NacetylLornithine: 0
[1]; metabolite niacinamide, platform pLC, p-Value 1
  Fold Change of niacinamide: 0
[1]; metabolite nopaline, platform pLC, p-Value 1
  Fold Change of nopaline: 0
[1]; metabolite ornithine3, platform GC, p-Value 0.965157424
  Fold Change of ornithine3: 0.041
[1]; metabolite orotic acid, platform nLC, p-Value 1
  Fold Change of orotic acid: 0
[1]; metabolite phenylpyruvic acid, platform nLC, p-Value 1
  Fold Change of phenylpyruvic acid: 0
[1]; metabolite pinitol, platform nLC, p-Value 1
  Fold Change of pinitol: 0
[1]; metabolite porphobilinogen, platform nLC, p-Value 1
  Fold Change of porphobilinogen: 0
[1]; metabolite progesterone, platform pLC, p-Value 1
  Fold Change of progesterone: 0
[1]; metabolite retinoic acid, platform nLC, p-Value 1
  Fold Change of retinoic acid: 0
[1]; metabolite riboflavin, platform pLC, p-Value 1
  Fold Change of riboflavin: 0
[1]; metabolite salicylic/HObenzoic, platform nLC, p-Value 1
  Fold Change of salicylic/HObenzoic: 0
[1]; metabolite shikimic acid, platform nLC, p-Value 1
  Fold Change of shikimic acid: 0
[1]; metabolite sinapinic acid, platform nLC, p-Value 1
  Fold Change of sinapinic acid: 0
[1]; metabolite sugar-phosphate, platform pLC, p-Value 1
  Fold Change of sugar-phosphate: 0
[1]; metabolite thiamine, platform pLC, p-Value 1
  Fold Change of thiamine: 0
[1]; metabolite tryptophan, platform pLC, p-Value 1
  Fold Change of tryptophan: 0
[1]; metabolite uric acid, platform pLC, p-Value 1
  Fold Change of uric acid: 0
[1]; metabolite xanthosine(diH2O), platform pLC, p-Value 1
  Fold Change of xanthosine(diH2O): 0
[1]; metabolite xanthosineDiH2O, platform nLC, p-Value 1
  Fold Change of xanthosineDiH2O: 0
[1]; nLC
  Fold Change: 4-methylcatechol: 0
  Fold Change: 5hydroxyLtryptophan: 0
  Fold Change: 6-benzylaminopurine: 0
  Fold Change: abscisic acid: 0
  Fold Change: adenine: 0
  Fold Change: anthranilic acid: 0
  Fold Change: benzoic acid: 0
  Fold Change: catechol: 0
  Fold Change: cinnamic acid: 0
  Fold Change: citricanoic/itaconi: 0
  Fold Change: coumaric acid: 0
  Fold Change: cytosine: 0
  Fold Change: diaminopimelic acid: 0
  Fold Change: dihydrofolic acid: 0
  Fold Change: estrone: 0
  Fold Change: farnesol: 0
  Fold Change: folic acid: 0
  Fold Change: gibberellic: 0
  Fold Change: guanine: 0
  Fold Change: histidine: 0
  Fold Change: homogentisic/uric: 0
  Fold Change: hydrocortisone: 0
  Fold Change: indole3pyruvic acid: 0
  Fold Change: jasmonic acid: 0
  Fold Change: kinetin: 0
  Fold Change: luteolin: 0
  Fold Change: malonic acid: 0
  Fold Change: methionine: 0
[1]; pLC
  Fold Change: 4-aminobenzoic acid: 0
  Fold Change: 4-methylcatechol: 0
  Fold Change: 5hydroxyLtryptophan: 0
  Fold Change: 6benzylaminopurine: 0
  Fold Change: abscisic acid: 0
  Fold Change: adenosine: 0
  Fold Change: allantoic acid: 0
  Fold Change: anthranilic acid: 0
  Fold Change: argininosuccinate: 0
  Fold Change: biotin: 0
  Fold Change: caffeine: 0
  Fold Change: citric acid TME: 0
  Fold Change: cytidine: 0
  Fold Change: diaminopimelic acid: 0
  Fold Change: dihydrofolic acid: 0
  Fold Change: dipicolinic acid: 0
  Fold Change: folic acid: 0
  Fold Change: glucosamine: 0
  Fold Change: glucosamine6PO4: 0
  Fold Change: histidine: 0
  Fold Change: hydrocortisone: 0
  Fold Change: itaconic acid dimes: 0
  Fold Change: kinetin: 0
  Fold Change: luteolin: 0
[2]
  # Reactions (Number Of Pathways Having at Least One Enzyme and One Compound Perturbed): 3

## C[C@@H]1[C@H](O)[C@@H](C)/C=C/C=C/C=C/C=C/C=C/C=C/C=C/[C@H](O[C@@H]2O[C@H](C)[C@@H](O)[C@H](N)[C@@H]2O)C[C@@H]2O[C@](O)(C[C@@H](O)C[C@@H](O)[C@H](O)CC[C@@H](O)C[C@@H](O)CC(=O)O[C@H]1C)C[C@H](O)[C@H]2C(=O)O [Amphoteracin B]
[3]
  # Pathways affected by at least one gene: 97
[2]
  # Reactions (Number Of Pathways Having at Least One Enzyme and One Compound Perturbed): 37

## CC(C)OC(=O)Nc1cccc(Cl)c1 [Chloropropham]
Arabidopsis thaliana
  herbicidal phenotype in words: neither showed a strong herbicidal phenotype
